In ChEMBL document CHEMBL1134154, “1-Alkyl-3-amino-5-aryl-1H-[1,2,4]triazoles: novel synthesis via cyclization of N-acyl-S-methylisothioureas with alkylhydrazines and their potent corticotropin-releasing factor-1 (CRF(1)) receptor antagonist activities” (Bioorg Med Chem Lett, 2001):

What follows are molecules tested against T1, Corticotropin-releasing factor receptor 1 (Homo sapiens, UniProt P34998) (assay: Binding affinity to cloned human CRF1 receptor expressed in CHO cells using [125I]o-CRF as radioligand at 10 uM concentration; In activie). Settings: not given; call rule not given here.
T1 sequence (P34998 whole entry): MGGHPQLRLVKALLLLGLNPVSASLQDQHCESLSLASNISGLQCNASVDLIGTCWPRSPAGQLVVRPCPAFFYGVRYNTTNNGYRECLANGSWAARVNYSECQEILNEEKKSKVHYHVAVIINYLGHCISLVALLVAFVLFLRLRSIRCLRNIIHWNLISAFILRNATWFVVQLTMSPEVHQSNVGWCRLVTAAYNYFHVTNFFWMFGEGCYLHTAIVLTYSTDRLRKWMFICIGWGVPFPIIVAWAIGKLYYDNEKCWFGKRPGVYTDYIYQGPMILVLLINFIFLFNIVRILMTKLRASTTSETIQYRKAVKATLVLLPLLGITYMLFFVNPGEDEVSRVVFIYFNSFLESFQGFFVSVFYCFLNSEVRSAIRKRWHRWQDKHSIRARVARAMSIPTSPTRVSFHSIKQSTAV
Type: cell-based

Ki	SMILES
Not Active	CCCN(CCC)c1nc(-c2ccc(Cl)cc2Cl)n(CCO)n1

Each molecule was assayed against T1, Corticotropin-releasing factor receptor 1 (assay: Tested for in vivo activity and binding affinity to human Corticotropin releasing factor receptor 1; In activie). Settings: not given.

Ki	SMILES
Not Active	CCCN(CC1CC1)c1nc(C)nc(Nc2c(Cl)cc(Cl)cc2Cl)c1Cl
Not Active	CCCCN(CC)c1nc(C)nc2c1c(C)cn2-c1c(C)cc(C)cc1C [CP-154526]

Each molecule was assayed against T2, Corticotropin-releasing factor receptor 1 (Homo sapiens) (UniProt P34998) (assay: Binding affinity to cloned human Corticotropin releasing factor receptor 1 expressed in CHO cells using [125I]o-CRF as radioligand). Settings: concentration not given here.
T2 sequence (whole entry): T1 sequence (P34998 whole entry)
Type: cell-based

inhibition [%]	SMILES
77	C=CCn1nc(N(CCC)C(C2CC2)C2CC2)nc1-c1ccc(Cl)cc1Cl

Each molecule was assayed against T1, Corticotropin-releasing factor receptor 1 (assay: Inhibition of [125I]o-CRF binding to human Corticotropin releasing factor receptor 1 expressed in CHO cells.). Settings: not given.
Type: cell-based

Ki [nM]	SMILES
26	CCCN(c1nc(-c2ccc(Cl)cc2OC)n(C)n1)C(C1CC1)C1CC1
22	CCCN(c1nc(-c2ccc(Cl)cc2C)n(C)n1)C(C1CC1)C1CC1
10	CCCN(c1nc(-c2ccc(Br)cc2C)n(C)n1)C(C1CC1)C1CC1
14	CCCN(CCC)c1nc(-c2ccc(Cl)cc2Cl)n(CCO)n1
80	CCCN(c1nc(-c2ccc(Cl)cc2Cl)n(CC)n1)C(C1CC1)C1CC1
15	CCCN(c1nc(-c2cc(F)c(Cl)cc2Cl)n(C)n1)C(C1CC1)C1CC1
9	CCCN(c1nc(-c2ccc(Cl)cc2Cl)n(C)n1)C(C1CC1)C1CC1
120	CCCN(c1nc(-c2c(C)cc(C)cc2C)n(C)n1)C(C1CC1)C1CC1
2600	CCCN(CCC)c1nc(-c2ccc(Cl)cc2Cl)n(C)n1
2400	CCCN(c1n[nH]c(-c2ccc(Cl)cc2Cl)n1)C(C1CC1)C1CC1
2200	C=CCn1nc(N(CCC)C(C2CC2)C2CC2)nc1-c1c(C)cc(C)cc1C
> 10000	CCCN(c1nc(-c2ccc(Cl)cc2Cl)nn1C)C(C1CC1)C1CC1
> 10000	CCCN(CC1CC1)c1nc(-c2ccc(Cl)cc2Cl)n(C)n1
33	CCCN(c1nc(-c2ccc(Cl)cc2)n(C)n1)C(C1CC1)C1CC1
310	CCCN(c1nc(-c2c(C)cc(C)cc2C)n(CC)n1)C(C1CC1)C1CC1

Each molecule was assayed against T1, Corticotropin-releasing factor receptor 1 (assay: Binding affinity to cloned human Corticotropin releasing factor receptor 1 expressed in CHO cells using [125I]o-CRF as radioligand at 10 uM concentration; In activie). Settings: not given.
Type: cell-based

Ki	SMILES
Not Active	CCCN(CCC)c1n[nH]c(-c2ccc(Cl)cc2Cl)n1
Not Active	CCCN(CC1CC1)c1n[nH]c(-c2cccc3cc(OC)ccc23)n1
Not Active	CCCN(CC1CC1)c1nc(-c2cccc3cc(OC)ccc23)n(C)n1
